Test results from PubChem BioAssay AID1863 (Southern Research Specialized Biocontainment Screening …, 2009).
Several values for one entry are separate records, joined by “and”; a condition that tells them apart may be missing. Equal values may be shown once.

The compounds below were run on S. Typhimurium PhoP-regulated promoter GFP reporter, 4 h (assay: inhibitors of PhoP regulon expression, primary screen, Salmonella Typhimurium, GFP reporter (AID 1863)).

| SMILES | IC50 |
| --- | --- |
| Nc1c(Cl)ncnc1N/N=C/c1ccccn1 | 30.8 µM |
| Cc1ccc(/C=C/C(=O)c2ccccc(=O)c2O)cc1C | 42.6 µM |
| COc1c(N2CCN(C(=S)NCc3ccccc3)C(C)C2)c(F)cc2c(=O)c(C(=O)O)cn(C3CC3)c12 (centres undefined) | 43.3 µM |
| C/C(=N\Nc1ncnc2sc(C)c(C)c12)c1ccccn1 | 73.9 µM |
| Nc1cccc2nc3ccccc3cc12 | 58.2 µM |
| c1ccc(-c2cccc(-c3ccccn3)n2)nc1 | 43.1 µM |
| Cc1ccc(Nc2nc(N)c3ccccc3n2)cc1Cl | 67.6 µM |
| CN1CCN(C(c2ccc(Br)cc2)c2cc(Cl)c3cccnc3c2O)CC1 (centres undefined) | 30.4 µM |
| Cc1ccc(C(=O)O)cc1N=Cc1cc(Br)cc(Br)c1O | 93.1 µM |
| N=C(N)SCc1cn(-c2ccccc2)nc1-c1ccc(Br)cc1 | 30.5 µM |
| CCCCCC(CC(=O)NO)C(=O)NC(C(=O)N1CCCC1CO)C(C)C (centres undefined) | 12.7 µM |
| O=[N+]([O-])c1cc(F)c2cccnc2c1O | 12 µM |
| Cc1cccc(Nc2c3c(nc4ccccc24)CCC3)c1 | 106 µM |
| CN1CCN(CCCN2c3ccccc3Sc3ccc(Cl)cc32)CC1 | 71.2 µM |
| Fc1ccccc1CCNCc1ccccc1 | 58.8 µM |
| COc1ccc(OCc2n(CC(=O)OC3CC(C)CCC3C(C)C)c3ccccc3[n+]2C)cc1 (centres undefined) | 74.9 µM |
| CCCCCOc1ccc(CSC(=N)N)cc1[N+](=O)[O-] | 82.7 µM |
| CC(=O)c1c(C)n([O-])c2ccccc2[n+]1=O | 119 µM |
| Oc1cccc2ccc(Nc3ccccn3)nc12 | 18.9 µM |
| O=[N+]([O-])c1cc(CN2CCOCC2)c2cccnc2c1O | 44.2 µM |
| O=[N+]([O-])c1ccc(O)c(/C=N/Nc2ccccn2)c1 | 17 µM |
| O=C(c1cccs1)c1no[n+]([O-])c1C(=O)c1cccs1 | 33.7 µM |
| CCOc1cc(/C=N/N=C(N)N)ccc1OCc1ccc(Cl)cc1 | 45.9 µM |
| O=C(N/N=C\c1cccc([N+](=O)[O-])c1O)C1COc2ccccc2O1 (centres undefined) | 105 µM |
| C=CC1=C(C(=O)O)N2C(=O)[C@@H](NC(=O)/C(=N/OCC(=O)O)c3csc(N)n3)[C@H]2SC1 | 22.4 µM |
| COc1ccc(/C=N/Nc2cc(C)nc3ccccc23)cc1 | 38.5 µM |
| Cc1cccc(Nc2cc(C)c3c(O)cccc3n2)c1C | 39.2 µM |

| SMILES | IC50 |
| --- | --- |
| COc1c(F)c(F)cc2c(=O)c(C(=O)O)cn(C3CC3)c12 | 37.5 µM |
| CN(O)/C=c1/ccc2c(n1)C(=O)C=CC=2 | 113 µM |
| CS(=O)(=O)c1ccc([C@@H](O)[C@@H](CO)NC(=O)C(Cl)Cl)cc1 | 70.3 µM |
| CC[n+]1c(/C=C/C=C/c2ccc(N(C)C)cc2)sc2ccccc21 | 69.6 µM |
| CCCCNC(=O)c1cn(CC)c2cc(N3CCN(C)CC3)c(F)cc2c1=O | 23.7 µM |
| O=c1c(O)cccc2cc(O)c(O)c(O)c12 | 27.5 µM |
| O=S1(=O)Nc2c(ccc3cccnc23)-c2ccccc21 | 7.72 µM |
| CC[C@H]1OC(=O)[C@H](C)[C@@H](O[C@H]2C[C@@](C)(OC)[C@@H](O)[C@H](C)O2)[C@H](C)[C@@H](O[C@@H]2O[C@H](C)C[C@H](N(C)C)[C@H]2O)[C@](C)(O)C[C@@H](C)CN(C)[C@H](C)[C@@H](O)[C@]1(C)O | 2.36 µM |
| COc1cccc(Nc2nc(NCC3CCCO3)c3ccccc3n2)c1 (centres undefined) | 82 µM |
| Clc1ccc(C[n+]2cc(-c3ccc(Cl)cc3)n3c2CCC3)cc1 | 127 µM |
| Cc1ccc(C(=O)N/N=C/c2cc(Br)ccc2O)cn1 | 76.5 µM |
| CCCNC(=O)c1cn(CC)c2cc(N3CCN(C)CC3)c(F)cc2c1=O | 25.8 µM |
| C#CCOCCOCCOCCNc1nc(N2CCN(C(=O)CCCCCCCCCCNC(=O)[C@H](CO)n3cc(CCCCCN)nn3)CC2)nc(N2CCN(C(=O)CCCCCCCCCCNC(=O)[C@H](CCCN=C(N)N)n3cc(C[C@@H](C)CC)nn3)CC2)n1 | 102 µM |
| CCN1/C(=C/C=C/c2sc3ccccc3[n+]2CC)Sc2ccccc21 | 33.5 µM |
| Cc1conc1NC(c1cccs1)c1ccc2cccnc2c1O (centres undefined) | 60.9 µM |
| CN1CCN(C(c2ccc(C(F)(F)F)cc2)c2cc(Cl)c3cccnc3c2O)CC1 (centres undefined) | 34 µM |
| CCNC(=S)NNC(=O)c1ccccn1 | 62.6 µM |
| O=[N+]([O-])c1ccc(CNC2CCCc3ccccc32)cc1 (centres undefined) | 81 µM |
| CCn1cc(C(=O)O)c(=O)c2cc(F)c(N3CCN(C(=S)NC(=O)c4ccccc4F)CC3)cc21 | 28.5 µM |
| O=S1(=O)N=C(N/N=C/c2ccccn2)c2ccccc21 | 34.5 µM |
| O=c1c2c(-c3ccccc3)csc2nc2c3ccccc3c(NCCN3CCOCC3)nn12 | 53.3 µM |
| O=C1NN(c2ccccc2)C(=O)/C1=C\c1coc2ccc(O)cc2c1=O | 132 µM |
| CCn1cc(C(=O)O)c(=O)c2cc(F)c(N3CCN(C(=S)NC(=O)c4ccc(F)c(F)c4)CC3)cc21 | 46.6 µM |
| Cc1ccccc1OCc1n(CC(=O)OC2CC(C)CCC2C(C)C)c2ccccc2[n+]1C (centres undefined) | 71 µM |
| Cc1scc(C(=O)N/N=C/c2ccc([N+](=O)[O-])o2)c1C | 110 µM |
| NC(=NCCCCCCN=C(N)/N=C(\N)Nc1ccc(Cl)cc1)/N=C(\N)Nc1ccc(Cl)cc1 | 8.29 µM and 10.1 µM and 14.9 µM |
| CN1CCc2c(sc(NC(=O)c3ccc([N+](=O)[O-])o3)c2C(N)=O)C1 | 52.8 µM |

| SMILES | IC50 |
| --- | --- |
| CCCCCNCC(=O)Nc1cccc(C(=O)Nc2cccc(C(F)(F)F)c2)c1 | 94.4 µM |
| COc1cnc(-c2ccccn2)[nH]c1=O | 55.2 µM |
| CCCCCCCNC(=O)C1(CC2CC(c3ccc(Cl)cc3)=NO2)CCNCC1 (centres undefined) | 54.5 µM |
| CC(Cc1ccccc1)NCc1ccccc1O (centres undefined) | 40.3 µM |
| Oc1c(Cl)cc(Cl)c2cccnc12 | 27.9 µM |
| CN(C)CCCN(C(=O)CCc1ccccc1)c1nc2ccc(Cl)cc2s1 | 48.2 µM |
| COC(=O)C1C(O)C(C)C(O)C(C)(O)/C=C\C=C(/C)C(=O)Nc2c(C)c(OC(C)=O)c3c(c2O)C(=O)C(C)=C2OCOC(=C23)/C(C)=C/C(C)(O)C(O)C(C)C1O (centres undefined) | 17.2 µM |
| O=[N+]([O-])c1cc(/C=N/Nc2nc3ccccc3[nH]2)c(O)cc1O | 24.3 µM |
| CCN(CC)c1ccc(/C=N/Nc2nc3ccccc3[nH]2)c(O)c1 | 134 µM |
| Fc1ccc(Nc2nc(NCc3ccco3)c3ccccc3n2)cc1 | 37.9 µM |
| Clc1cc(Br)ccc1OCCCNCc1ccccc1 | 82.8 µM |
| N=c1n(Cc2ccccc2)c2ccccc2n1CC(O)COc1ccc(Cl)cc1Cl (centres undefined) | 35.1 µM |
| Cc1ccc(Cn2c(=N)n(CC(=O)c3ccc([N+](=O)[O-])cc3)c3ccccc32)cc1 | 143 µM |
| Cc1nc(N)nc(N)c1/C=C/C(C)(C)c1ccc(Cl)cc1 | 18.5 µM |
| COc1ccc(C(=O)N/N=C/c2sc3ccccc3c2O)cc1 | 107 µM |
| CCn1cc(C(=O)O)c(=O)c2cc(F)c(N3CCNCC3)cc21 | 0.51 µM |
| CN(C)C1C(=O)C(C(N)=O)=C(O)C2(O)C(=O)C3=C(O)c4c(O)cccc4C(C)(O)C3CC12 (centres undefined) | 3.55 µM |
| Oc1cccc(Nc2c3ccccc3nc3ccccc23)c1 | 147 µM |
| CCCOc1ccc(C(=O)NC(=S)N2CCN(c3cc4c(cc3F)c(=O)c(C(=O)O)cn4CC)CC2)cc1 | 24.3 µM |
| CCCCCCCCCCOC(=O)Cn1c(COc2cccc(C)c2)[n+](C)c2ccccc21 | 18.7 µM |
| O=Cc1ccc(O)c2ncccc12 | 10.2 µM |
| CN(C)[C@@H]1C(=O)C(C(N)=O)=C(O)[C@@]2(O)C(=O)C3=C(O)c4c(O)cccc4[C@@](C)(O)C3[C@H](O)C12 (some centres undefined) | 1.74 µM |
| Cc1cc(C)c(NC(=O)c2cn3c4c(c(N5CCN(C)CC5)c(F)cc4c2=O)OCC3C)c(C)c1 (centres undefined) | 20.3 µM |
| Oc1ccc(/C=N/Nc2ncc(Br)cn2)c(O)c1 | 111 µM |
| Cc1ccc(-c2csc(NC(=O)C[n+]3cc(-c4ccc(C)cc4)n4c3CCC4)n2)cc1 | 50 µM |
